Measurements: publication PMC11729419, “Thiol-Reactive or Redox-Active: Revising a Repurposing Screen Led to a New Invalidation Pipeline and Identified a True Noncovalent Inhibitor Against Papain-like Protease from SARS-CoV-2” (ACS Pharmacology & Translational Science, 2024)
Like-named read-outs stand apart in the source and are kept apart here. * marks the point of attachment. AMC = Cc1cc(=O)oc2cc(N*)ccc12; Cbz = O=C(OCc1ccccc1)*

What was measured:
SARS-CoV-2 PLpro-NAB [1] = target: T1, SARS-CoV-2 PLpro-NAB (Severe acute respiratory syndrome coronavirus 2, UniProt P0DTD1); test: biochemical
SARS-CoV-2 PLpro-NAB [2] = target: T1, SARS-CoV-2 PLpro-NAB; type: biochemical
[3] = Table S1, 20 µM, DTT buffer, average (SD), read-out: HC PLpro-NAB SARS-CoV-2 inhibition [%] 20 µM triplicates DTT BUFFER
[4] = Table S1, 20 µM, L-cysteine buffer, average (SD), read-out: HP PLpro-NAB SARS-CoV-2 inhibition [%] 20 µM triplicates L-CYS BUFFER
[5] = Table S1, DTT buffer, read-out: HP PLpro-NAB SARS-CoV-2 IC50 [µM] triplicates DTT BUFFER
[6] = Table S1, L-cysteine buffer, read-out: HP PLpro-NAB SARS-CoV-2 IC50 [µM] duplicates L-CYS BUFFER
[7] = Table S1, 20 µM, DTT buffer, average (SD)
[8] = Table S1, 20 µM, L-cysteine buffer, average (SD)

N#CSc1cc(SC#N)c(N)nc1N [PR-619]
Inhibition in L-cysteine buffer versus DTT buffer (dose-response) (SARS-CoV-2 PLpro-NAB [1]; 1 mM L-cysteine vs 1 mM DTT): did not show variations in inhibition potency or thermal stability
Inhibitory activity on retest in 1 mM L-cysteine (SARS-CoV-2 PLpro-NAB [1]; 50% inhibition at 20 μM, 1 mM L-cysteine): retained their inhibitory activity
HC PLpro-NAB inhibition [%] 20 μM triplicates 1 mM DTT buffer (SARS-CoV-2 PLpro-NAB [1]; hit confirmation, 20 μM, 1 mM DTT buffer, average (SD), 20 μM PR619 = 100%, DMSO = 0%): 101.31 (1.54) %
HP PLpro-NAB inhibition [%] 20 μM triplicates 1 mM L-cys buffer (SARS-CoV-2 PLpro-NAB [1]; hit profiling, 20 μM, 1 mM L-cys buffer, average (SD), 20 μM PR619 = 100%): 106.60 (1.05) %
IC50 (SARS-CoV-2 PLpro-NAB [1]; read-out: HP PLpro-NAB IC50 [μM] duplicates 1 mM L-cys buffer, hit profiling, 1 mM L-cys buffer): 3.7 µM
IC50 (SARS-CoV-2 PLpro-NAB [1]; read-out: HP PLpro-NAB IC50 [μM] triplicates 1 mM DTT buffer, hit profiling, 1 mM DTT buffer): 1.39 µM

Cc1cccc2c3c(ccc12)C1=C(C(=O)C3=O)[C@@H](C)CO1 [Dihydrotanshinone I]
inhibition at 20 µM (SARS-CoV-2 PLpro-NAB [1]; [3]): 80.7%
inhibition at 20 µM (SARS-CoV-2 PLpro-NAB [1]; [4]): -176%
IC50 (SARS-CoV-2 PLpro-NAB [1]; [5]): 0.92 µM
IC50 (SARS-CoV-2 PLpro-NAB [1]; [6]): > 20 µM

Ryuvidine
HC PLpro-NAB SARS-CoV-2 inhibition [%] 20 µM triplicates DTT BUFFER (SARS-CoV-2 PLpro-NAB [1]; [7]): 159.90 (1.27) %
HP PLpro-NAB SARS-CoV-2 inhibition [%] 20 µM triplicates L-CYS BUFFER (SARS-CoV-2 PLpro-NAB [1]; [8]): -33.69 (4.70) %
IC50 (SARS-CoV-2 PLpro-NAB [1]; [5]): 0.26 µM
IC50 (SARS-CoV-2 PLpro-NAB [1]; [6]): > 20 µM

O=C(O)c1cc(O)c2c(c1)[C@H]([C@H]1c3cc(C(=O)O)cc(O)c3C(=O)c3c(O[C@@H]4O[C@H](CO)[C@@H](O)[C@H](O)[C@H]4O)cccc31)c1cccc(O[C@@H]3O[C@H](CO)[C@@H](O)[C@H](O)[C@H]3O)c1C2=O [sennoside A]
inhibition at 20 µM (SARS-CoV-2 PLpro-NAB [1]; hit confirmation, 20 μM, 1 mM DTT buffer, average (SD), 20 μM PR619 = 100%, DMSO = 0%, read-out: HC PLpro-NAB inhibition [%] 20 μM triplicates 1 mM DTT buffer): 160%
inhibition at 20 µM (SARS-CoV-2 PLpro-NAB [1]; hit profiling, 20 μM, 1 mM L-cys buffer, average (SD), 20 μM PR619 = 100%, read-out: HP PLpro-NAB inhibition [%] 20 μM triplicates 1 mM L-cys buffer): 149%

CC[N+](C)(CC)CCC[n+]1c(-c2ccccc2)c2cc(N)ccc2c2ccc(N)cc21.[I-].[I-] [Propidium-Iodide]
HC PLpro-NAB SARS-CoV-2 inhibition [%] 20 µM triplicates DTT BUFFER (SARS-CoV-2 PLpro-NAB [1]; [7]): 135.55 (3.03) %
HP PLpro-NAB SARS-CoV-2 inhibition [%] 20 µM triplicates L-CYS BUFFER (SARS-CoV-2 PLpro-NAB [1]; [8]): 14.90 (7.41) %
IC50 (SARS-CoV-2 PLpro-NAB [1]; [5]): 0.24 µM
IC50 (SARS-CoV-2 PLpro-NAB [1]; [6]): > 20 µM

CC1(C)CCC2=C(O1)C(=O)c1ccccc1C2=O [Alpha Lapachone]
HC PLpro-NAB SARS-CoV-2 inhibition [%] 20 µM triplicates DTT BUFFER (SARS-CoV-2 PLpro-NAB [1]; [7]): 146.26 (3.11) %
HP PLpro-NAB SARS-CoV-2 inhibition [%] 20 µM triplicates L-CYS BUFFER (SARS-CoV-2 PLpro-NAB [1]; [8]): -6.97 (8.44) %
IC50 (SARS-CoV-2 PLpro-NAB [1]; [5]): 4.43 µM
IC50 (SARS-CoV-2 PLpro-NAB [1]; [6]): > 20 µM

Nc1ccc(O)c2ncccc12 [PD119507]
HC PLpro-NAB SARS-CoV-2 inhibition [%] 20 µM triplicates DTT BUFFER (SARS-CoV-2 PLpro-NAB [1]; [7]): 186.40 (4.35) %
HP PLpro-NAB SARS-CoV-2 inhibition [%] 20 µM triplicates L-CYS BUFFER (SARS-CoV-2 PLpro-NAB [1]; [8]): -16.42 (5.8) %
IC50 (SARS-CoV-2 PLpro-NAB [1]; [5]): 0.065 µM
IC50 (SARS-CoV-2 PLpro-NAB [1]; [6]): > 20 µM

COCCn1c2c([n+](Cc3cnccn3)c1C)C(=O)c1ccccc1C2=O [YM-155]
inhibition at 20 µM (SARS-CoV-2 PLpro-NAB [1]; [3]): 139%
inhibition at 20 µM (SARS-CoV-2 PLpro-NAB [1]; [4]): -5.61%
IC50 (SARS-CoV-2 PLpro-NAB [1]; [5]): 17.9 µM
IC50 (SARS-CoV-2 PLpro-NAB [1]; [6]): > 20 µM

Cn1cccc1/C=C1\C(=O)NC(=O)c2ccccc21 [BYK-204165]
HC PLpro-NAB SARS-CoV-2 inhibition [%] 20 µM triplicates DTT BUFFER (SARS-CoV-2 PLpro-NAB [1]; [7]): 137.58 (2.88) %
HP PLpro-NAB SARS-CoV-2 inhibition [%] 20 µM triplicates L-CYS BUFFER (SARS-CoV-2 PLpro-NAB [1]; [8]): 7.10 (11.9) %
IC50 (SARS-CoV-2 PLpro-NAB [1]; [5]): 6.17 µM
IC50 (SARS-CoV-2 PLpro-NAB [1]; [6]): > 20 µM

Ro-08-2750
HC PLpro-NAB SARS-CoV-2 inhibition [%] 20 µM triplicates DTT BUFFER (SARS-CoV-2 PLpro-NAB [1]; [7]): 119.29 (1.83) %
HP PLpro-NAB SARS-CoV-2 inhibition [%] 20 µM triplicates L-CYS BUFFER (SARS-CoV-2 PLpro-NAB [1]; [8]): -33.99 (8.82) %
IC50 (SARS-CoV-2 PLpro-NAB [1]; [5]): 0.4 µM
IC50 (SARS-CoV-2 PLpro-NAB [1]; [6]): > 20 µM

C[C@H]1COC2=C1C(=O)C(=O)c1c2ccc2c1CCCC2(C)C [Cryptotanshinone]
inhibition at 20 µM (SARS-CoV-2 PLpro-NAB [1]; [3]): 40.7%
inhibition at 20 µM (SARS-CoV-2 PLpro-NAB [1]; [4]): -71.4%

CCOC(=O)C1=C(C)N=c2sc(=Cc3ccc(OCC(=O)O)cc3)c(=O)n2C1c1ccc(SC)cc1 (stereo not drawn) [ML120]
HC PLpro-NAB SARS-CoV-2 inhibition [%] 20 µM triplicates DTT BUFFER (SARS-CoV-2 PLpro-NAB [1]; [7]): 82.78 (2.58) %
HP PLpro-NAB SARS-CoV-2 inhibition [%] 20 µM triplicates L-CYS BUFFER (SARS-CoV-2 PLpro-NAB [1]; [8]): -56.07 (10.54) %
IC50 (SARS-CoV-2 PLpro-NAB [1]; [5]): 3.14 µM
IC50 (SARS-CoV-2 PLpro-NAB [1]; [6]): > 20 µM

NC(Cc1cc(O)c(O)cc1O)C(=O)O (racemic) [6-Hydroxy-DL-DOPA]
HC PLpro-NAB SARS-CoV-2 inhibition [%] 20 µM triplicates DTT BUFFER (SARS-CoV-2 PLpro-NAB [1]; [7]): 81.47 (1.21) %
HP PLpro-NAB SARS-CoV-2 inhibition [%] 20 µM triplicates L-CYS BUFFER (SARS-CoV-2 PLpro-NAB [1]; [8]): 4.81 (4.61) %
IC50 (SARS-CoV-2 PLpro-NAB [1]; [5]): > 20 µM
IC50 (SARS-CoV-2 PLpro-NAB [1]; [6]): > 20 µM

COc1cc([C@@H]2c3cc4c(cc3[C@@H](O[C@@H]3O[C@@H]5CO[C@@H](C)O[C@H]5[C@H](O)[C@H]3O)[C@H]3COC(=O)[C@H]23)OCO4)cc(OC)c1O [Etoposide]
IC50 (SARS-CoV-2 PLpro-NAB [1]; [5]): > 20 µM
IC50 (SARS-CoV-2 PLpro-NAB [1]; [6]): > 20 µM

CC1(C)C(=O)N=C2C1=C(O)C(=O)c1ccccc12 [BVT-948]
HC PLpro-NAB SARS-CoV-2 inhibition [%] 20 µM triplicates DTT BUFFER (SARS-CoV-2 PLpro-NAB [1]; [7]): 154.88 (0.27) %
HP PLpro-NAB SARS-CoV-2 inhibition [%] 20 µM triplicates L-CYS BUFFER (SARS-CoV-2 PLpro-NAB [1]; [8]): -16.22 (16.3) %
IC50 (SARS-CoV-2 PLpro-NAB [1]; [5]): 0.39 µM
IC50 (SARS-CoV-2 PLpro-NAB [1]; [6]): > 20 µM

O=C1C(=O)c2ccccc2-c2ccccc21 [9,10-Phenanthrenequinone]
inhibition at 20 µM (SARS-CoV-2 PLpro-NAB [1]; [4]): -40.8%
IC50 (SARS-CoV-2 PLpro-NAB [1]; [6]): > 20 µM

Cbz-LRGG-{AMC}
Km (SARS-CoV-2 PLpro-NAB [2]): 45.2 µM
Vmax (SARS-CoV-2 PLpro-NAB [2]): 173 041 /min
